The text below walks through data of a melting point compilation (Tetko et al.; mined from patent text by program, amines drawn as free bases though some values may be those of a salt).

Residues, ends and D or L forms follow the SMILES beside them. *: point of attachment. Bz = O=C(c1ccccc1)*

As a reminder, the melting point is the temperature, or range, at which the solid turns liquid. Consider `COc1ccc(C2=NN(c3ccc(NS(=O)(=O)c4ccc(C)cc4)cc3)C(=O)[C@H]3CC=CC[C@@H]23)cc1OC` (relative stereo), for which the melting point lay within 229 to 230 °C. For the compound `COc1c(N2CCNC(CF)(CF)C2)c(F)cc2c(=O)c(C(=O)O)cn(C3CC3F)c12` (stereo not given), the melting point lay within 164 to 166 °C. On to `NCCCNC(c1ccccc1)(c1ccccc1)c1ccccc1`, for which the melting point was in the range of 59 to 61 °C.

In turn, `CC(C)(C)c1cc(-c2cncn2CCCCl)cc(C(C)(C)C)c1O` returned a melting point of 178 to 179 °C.

In turn, `CC(C)C12OC1C1OC13C1(C)CCC4=C(COC4=O)C1CC1OC13C2O` (stereo not given) returned a melting point of 226 to 228 °C. Regarding `O=C(CCCN1CCN(c2cc3ccccc3cn2)CC1)c1ccc(F)cc1`, the melting point was 148 to 150 °C. Regarding `COc1ccc(C(=O)c2cccc(Cc3ccc(=O)[nH]n3)c2Cl)cc1`, the melting point is 192 to 193 °C.

Consider `OC1CSC(Oc2ccccc2-c2ccoc2)C(O)C1O` (stereo not given), for which the melting point turned out to be 102 °C.

Turning to `COc1ccc(/C(=C\C(=O)N2CCNCC2)c2ccccc2Cl)cc1`, the melting point was 108 to 110 °C. Turning to `CCNC(=O)[C@@H]1CCCN1C(=O)[C@H](C)NC(=O)c1ccccc1` (Bz-Ala-Pro-NHEt), the melting point fell in the range of 200 to 202 °C.

As for `COc1ccc(Br)c(C(=O)N2CCN(S(=O)(=O)c3c(F)cccc3F)CC2)c1`, the melting point came to 154 °C.

The compound `CC(C)(C)OC(=O)NC1COCCCC=CC2CC2(C(=O)NS(=O)(=O)C2CC2)NC(=O)C2CC(OC(=O)Nc3ccccc3Oc3ccccc3)CN2C1=O` (stereo not given) registered a melting point of 151 to 153 °C. Compound `NCc1ccc(OCc2ccccc2)c(O)c1` displayed a melting point of 122 to 125 °C. In the case of `CC(C)(C)n1nc2c(N)nc3ccccc3c2c1CCCNS(C)(=O)=O`, the melting point was 223 to 224 °C. As for `CC#CCOc1ccc(OCC(=O)OCC)cc1`, the melting point was 100 to 105 °C. In turn, `Nc1sc2c(c1C(=O)c1ccc(Br)cc1)CCN(C(=O)Nc1ccccc1)C2` displayed a melting point of 89 to 90 °C. The compound `Cn1ccnc1C1(CCCCc2ccc(N3C(=O)c4ccccc4C3=O)cc2)c2ccccc2-c2ccccc21` came in with a melting point of 76 to 80 °C. As to `CN(C)C(=O)c1nc2n(n1)-c1ccc(Cl)cc1C(c1ccccc1F)=NC2`, the melting point lay in the range of 180 to 182 °C. The compound `OC1(C2(Cl)CC2)Cc2ncnn2C(CC(Cl)(Cl)Cl)C1` (stereo not given) registered a melting point of 153 to 154 °C. Under `CN(C)c1ccc(NC(=O)N(C[C@H]2CC[C@H](CN(C(=O)Nc3ccc(N(C)C)cc3)C3CCCCC3)CC2)C2CCCCC2)cc1` stands 128 to 131 °C; under `Cc1ccccc1-c1cn(C)cc(-c2ccc(Cl)c(Cl)c2)c1=O`, 103 to 106 °C; under `Cc1nccn1Cc1ccc(N)cc1C(F)(F)F`, 146 to 147 °C. With `COc1cc(C(=O)c2ccc(CC(=O)O)s2)cc(OC)c1OC`, the melting point was 124 °C. In the case of `CC(=O)Cn1cnc2c1c(=O)[nH]c(=O)n2C`, the melting point was < 295 °C. In turn, `COC(=O)CN(C)c1nc(-c2ccc(Br)cc2)c(C=O)s1` displayed a melting point of 105 to 106 °C. The compound `FC(F)(F)c1ccc(N2CCNCC2)nc1` came in with a melting point of 45 to 47 °C. `CCOC(=O)N(c1ccc(C#N)cc1)c1c(NC(C)C(C)(C)C)c(=O)c1=O` (stereo not given) showed a melting point of 158 to 159 °C. As for `CCCOC(=O)c1cc(=O)c(Sc2ccc(OC)cc2)co1`, the melting point lay within 91 to 93 °C. `O=C(NCc1ccccc1)[C@@H]1CCCCN1` came in with a melting point of 103 to 104 °C. Under `FC(F)(F)CNc1ccc2c(c1)N1CCN=C1S2` stands 212 °C.

For the compound `O=S(=O)(Nc1ccc(Oc2ccc3cccnc3c2)cc1)c1ccc(Cl)cc1`, the melting point came to 208 °C. Consider `Fc1ccc(C2=NOC(c3cc(Cl)cc(Cl)c3)(C(F)(F)F)C2)cc1Br` (stereo not given), for which the melting point came to 132 °C. Consider `c1ccc(CN2CC3(COc4cc5c(cc43)CCO5)c3c(-c4cccnc4)cccc32)nc1` (stereo not given), for which the melting point was > 200 °C.

`CC(=O)Nc1cc(I)ccc1Sc1ccc([N+](=O)[O-])cc1[N+](=O)[O-]`: the melting point lay in the range of 224 to 226 °C. The value for `Cc1nn(CC(O)c2ccc(OC(F)(F)F)cc2)c(=O)n1-c1ccc(N2CCN(c3ccc(O)cc3)CC2)cc1` (stereo not given) was 231 °C; that for `CCC1C(=O)c2c(cc(OCC(=O)O)c(Cl)c2Cl)C1c1ccccc1` (stereo not given) was 199 to 203 °C; that for `O=C(O)C1CCC(OCc2ccccc2)CC1` (stereo not given) was 55 to 64 °C. Turning to `CCCNC1=NS(=O)(=O)c2cc(C(=O)O)ccc2N1`, the melting point is > 310 °C. As to `CCCCNC(=O)NS(=O)(=O)c1c(C)nn(C)c1OC`, the melting point is 135 to 142 °C. Compound `O=C(O)c1snc(-c2ccccc2)c1O` returned a melting point of 161 to 163 °C. On to `N#CC(=CO)c1ccc(Cl)cc1Cl`, for which the melting point was 162 to 163 °C. Compound `CCSc1nc(-c2ccccc2)cc2nnc(C)n12` yielded a melting point of 210 to 212 °C. Under `O=C(O)c1cccc(-c2cccc3c2CCN(Cc2cccc(C(F)(F)F)c2)C3)c1` stands 230 to 231 °C; under `O=C(O)c1ccc(-c2nc(-c3ccc(C(F)(F)F)cc3)no2)c([N+](=O)[O-])c1`, 233 to 234 °C; under `CC(=O)Nc1ncc(Sc2nnnn2C)s1`, 208 to 210 °C. Compound `COc1nc2ccc(Br)cc2c2c1C(C)(OCC(O)Cn1ccc(-c3ccc(C(F)(F)F)cc3)n1)c1ccccc1-2` (stereo not given) had a melting point of 65 to 67 °C. The value for `Cc1cc(C(=O)N2CCN(c3c(C#N)c(=O)n(Cc4ccc(F)cc4)c4ccccc34)CC2)no1` was 123 to 135 °C; that for `CC(C)OC(C)c1nnc(N)s1` (stereo not given) was 129 to 135 °C; that for `CCCNC(=O)C1(CCCN2CCC(N3Cc4ccccc4C3=O)CC2)c2ccccc2-c2ccccc21` was 136 to 138 °C. For the compound `Oc1ccc(C(F)(F)F)cc1-n1nc2ccccc2n1`, the melting point lay within 119 to 120 °C. In turn, `CC1CCC2C(C)(C)C(=O)OC3OC4(C)CCC1C32OO4` (single isomer, unassigned; (+)) came in with a melting point of 117 to 118 °C. Regarding `CCOc1ccc(C(=O)Nc2c(Cl)cncc2Cl)c2c3ccccc3n(Cc3ccccc3)c12`, the melting point is 210 to 213 °C. `CCOC(=O)C1=C(C)NC(O)(C(F)(F)F)C(C(=O)OCC)C1c1cccc([N+](=O)[O-])c1` (stereo not given) had a melting point of 120 to 121 °C. The value for `CC(C)OC(=O)N1CCC(c2nc3cc(-c4ccc(C(N)=O)cc4Cl)ccc3o2)CC1` was 178 to 182 °C; that for `O=C(Nc1cccc2c(=O)cc(C(=O)O)oc12)c1ccc2c(c1)CCC(CCCc1ccccc1)O2` (stereo not given) was 325 to 326 °C. In turn, `COc1ccc2c(c1)c(Cc1cc(=O)n(-c3cccc(Cl)c3)[nH]1)c(C)n2C(=O)c1ccc(Cl)cc1` yielded a melting point of 148 to 150 °C. With `CCC(=O)OCCc1ccc2c(c1)C(=O)c1ccccc1CO2`, the melting point is 71.5 to 73.5 °C. `O[C@@H](CCOc1cccc2ccccc12)c1ccccc1` displayed a melting point of 76 to 78 °C. `CCOc1ccc(-c2ccc3c(c2)C=C(C(=O)Nc2ccc(CN(C)C4CCC(=O)CC4)cc2)CCO3)cc1` came in with a melting point of 146 to 148 °C. Compound `CC(C)c1nc(C(C)C)c(CSc2cccc(F)c2)c(-c2ccc(F)cc2)c1CO` showed a melting point of 99 to 100 °C.

The compound `COc1ccc2c(C)c(Cl)ccc2c1C(F)(F)F` gave a melting point of 102 to 103 °C. `Cc1ccc(-c2c(C(=O)Nc3nccs3)nc(-c3cccc4ccccc34)n2Cc2ccccc2)cc1` showed a melting point of 231 to 232 °C. Regarding `Cc1noc(NC(=O)N2CCN(c3nccc(-c4c(F)cccc4F)n3)CC2)c1C`, the melting point is 189 to 190 °C.

Turning to `CC(C)(Oc1ccc(CCC(=O)c2ccc(-c3ccccc3)s2)c(Cl)c1Cl)C(=O)O`, the melting point lay within 179 to 180 °C. The compound `CC1COc2c(N3CCC(n4ccnn4)C3)c(F)cc3c(=O)c(C(=O)O)cn1c23` (single isomer, unassigned; (-)) came in with a melting point of 225 to 229 °C. Compound `COc1ccc(C(=O)c2cc3ccccc3o2)c(Cl)c1Cl` gave a melting point of 148 °C. Turning to `O=C1CC2CS(=O)(=O)c3ccccc3C2=NN1c1ccc(Cl)cc1` (stereo not given), the melting point fell in the range of 168 to 170 °C. `O=C(c1ccc(C#Cc2ccccc2)cc1)c1ccc(Oc2ccccc2)cc1` had a melting point of 166 °C. `CN1CCC(OC(c2cccc(N)c2)c2nc3ccccc3[nH]2)CC1` (stereo not given): the melting point is 100 °C. Compound `COC(=O)CCCCCCC(=O)c1ccc(OC)cc1` registered a melting point of 57 to 58 °C. With `O=C1NC(=O)C(Cc2ccc(OCCON3C(=O)c4ccccc4C3=O)cc2)S1` (stereo not given), the melting point fell in the range of 146 to 147 °C.

On to `C=Cc1cccc2[nH]cc(S(=O)(=O)c3ccccc3)c12`, for which the melting point lay within 125 to 128 °C. In turn, `CC(C)(C)c1ncc(C(C(=O)O)C(C)(C)C)cn1` (single isomer, unassigned; (+)) yielded a melting point of 222 to 224 °C. On to `ON=C1CN2CCC1CC2`, for which the melting point was 117 to 119 °C. Compound `CCOC(c1cccc(OCc2nc(-c3ccccc3)oc2C)c1)c1ccc(OC)cc1OCC(=O)O` (stereo not given) gave a melting point of 129 to 130 °C. In the case of `O=C(O)c1c2c(nc3ccc(F)cc13)-c1ccc(-c3cccs3)cc1CCC2`, the melting point was > 300 °C.

As for `O=C(O)CCCc1ccc(C(NS(=O)(=O)c2ccc(Cl)cc2)C2CCCC2)cc1` (single isomer, unassigned; (-)), the melting point was 160 to 162 °C. `COc1ccc2ccccc2c1OP(=O)(O)O` came in with a melting point of 171 °C.

Regarding `COc1ccc(C(C#Cc2ccccc2)CNC(C)=O)cc1OC1CCCC1` (racemic), the melting point was in the range of 114 to 117 °C.

`CCC1=C(C)CN(C(=O)NC2COc3cc(OC)c(S(=O)(=O)NC(=S)NC)cc3C2)C1=O` (stereo not given) registered a melting point of 205 °C.

For `CCCCCCc1cc2c(cc1CNCC(=O)O)C(=O)CC2`, the melting point turned out to be 70 °C. Consider `CCCOC(=O)C1Oc2ccccc2Cc2ccccc2O1`, for which the melting point was in the range of 82 to 85 °C.

With `O=C(O)C1(CCCCCCCCCCCCC2(C(F)F)CC2)CC1`, the melting point lay in the range of 54 to 54.8 °C. Take `c1cncc(-c2nsnc2SCCCc2cccs2)c1`: the melting point fell in the range of 98 to 100 °C. With `O=C(O)CSC(c1ccccc1)c1ccccc1`, the melting point was in the range of 126 to 129 °C.
